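Five concentrations, 48 hours, 96-well plates. Definition used: TGI = concentration required for complete inhibition of growth.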
How the values were obtained:
Assay in all cases: inhibition of tumour cell growth, NCI panel, 48 h
A498 renal = test system: A498 renal
U251 CNS = test system: U251 CNS
MDA-N = test system: MDA-N
RPMI-8226 leukemia = test system: RPMI-8226 leukemia
TK-10 renal = test system: TK-10 renal
CAKI-1 renal = test system: CAKI-1 renal
CCRF-CEM leukemia = test system: CCRF-CEM leukemia
NCI-H226 lung = test system: NCI-H226 lung
K-562 leukemia = test system: K-562 leukemia
MDA-MB-435 = test system: MDA-MB-435
HCC-2998 colon = test system: HCC-2998 colon
MCF7 breast = test system: MCF7 breast
KM12 colon = test system: KM12 colon
MALME-3M melanoma = test system: MALME-3M melanoma
SK-MEL-5 melanoma = test system: SK-MEL-5 melanoma
HCT-15 colon = test system: HCT-15 colon
SNB-19 CNS = test system: SNB-19 CNS
COLO 205 colon = test system: COLO 205 colon
OVCAR-3 ovarian = test system: OVCAR-3 ovarian
DU-145 prostate = test system: DU-145 prostate
T-47D breast = test system: T-47D breast
HCT-116 colon = test system: HCT-116 colon
HT29 colon = test system: HT29 colon
HOP-92 NSCLC = test system: HOP-92 NSCLC
EKVX NSCLC = test system: EKVX NSCLC
NCI-H522 lung = test system: NCI-H522 lung
ACHN renal = test system: ACHN renal
SW-620 colon = test system: SW-620 colon
IGROV1 ovarian = test system: IGROV1 ovarian
SF-295 CNS = test system: SF-295 CNS
NCI/ADR-RES ovarian = test system: NCI/ADR-RES ovarian
PC-3 prostate = test system: PC-3 prostate
NCI-H23 lung = test system: NCI-H23 lung
SF-268 CNS = test system: SF-268 CNS
A549 NSCLC = test system: A549 NSCLC
HL-60(TB) leukemia = test system: HL-60(TB) leukemia
UACC-257 melanoma = test system: UACC-257 melanoma
OVCAR-4 ovarian = test system: OVCAR-4 ovarian
SN12C renal = test system: SN12C renal
M14 melanoma = test system: M14 melanoma
SF-539 CNS = test system: SF-539 CNS
786-0 renal = test system: 786-0 renal
UO-31 renal = test system: UO-31 renal
SK-MEL-2 melanoma = test system: SK-MEL-2 melanoma
SK-MEL-28 melanoma = test system: SK-MEL-28 melanoma
HOP-62 NSCLC = test system: HOP-62 NSCLC
HS 578T breast = test system: HS 578T breast
MOLT-4 leukemia = test system: MOLT-4 leukemia
RXF 393 renal = test system: RXF 393 renal
UACC-62 melanoma = test system: UACC-62 melanoma
SR leukemia = test system: SR leukemia
NCI-H460 lung = test system: NCI-H460 lung
SK-OV-3 ovarian = test system: SK-OV-3 ovarian
OVCAR-5 ovarian = test system: OVCAR-5 ovarian
LOX IMVI melanoma = test system: LOX IMVI melanoma
OVCAR-8 ovarian = test system: OVCAR-8 ovarian
MDA-MB-231 breast = test system: MDA-MB-231 breast
SNB-75 CNS = test system: SNB-75 CNS

## CC(=O)OCc1cccc(O)c1C(=O)CCC=C(C)C
A498 renal
  TGI: > 100 µM
U251 CNS
  TGI: > 100 µM
MDA-N
  TGI: > 100 µM
RPMI-8226 leukemia
  TGI: > 100 µM
TK-10 renal
  TGI: > 100 µM
CAKI-1 renal
  TGI: > 100 µM
CCRF-CEM leukemia
  TGI: > 100 µM
NCI-H226 lung
  TGI: > 100 µM
K-562 leukemia
  TGI: > 100 µM
MDA-MB-435
  TGI: > 100 µM
HCC-2998 colon
  TGI: > 100 µM
MCF7 breast
  TGI: > 100 µM
KM12 colon
  TGI: > 100 µM
MALME-3M melanoma
  TGI: > 100 µM
SK-MEL-5 melanoma
  TGI: > 100 µM
HCT-15 colon
  TGI: > 100 µM
SNB-19 CNS
  TGI: > 100 µM
COLO 205 colon
  TGI: > 100 µM
OVCAR-3 ovarian
  TGI: > 100 µM
DU-145 prostate
  TGI: > 100 µM
T-47D breast
  TGI: > 100 µM
HCT-116 colon
  TGI: > 100 µM
HT29 colon
  TGI: > 100 µM
HOP-92 NSCLC
  TGI: > 100 µM
EKVX NSCLC
  TGI: > 100 µM
NCI-H522 lung
  TGI: 56.6 µM
ACHN renal
  TGI: > 100 µM
SW-620 colon
  TGI: > 100 µM
IGROV1 ovarian
  TGI: > 100 µM
SF-295 CNS
  TGI: > 100 µM
NCI/ADR-RES ovarian
  TGI: > 100 µM
PC-3 prostate
  TGI: > 100 µM
NCI-H23 lung
  TGI: > 100 µM
SF-268 CNS
  TGI: > 100 µM
A549 NSCLC
  TGI: > 100 µM
HL-60(TB) leukemia
  TGI: > 100 µM
UACC-257 melanoma
  TGI: > 100 µM
OVCAR-4 ovarian
  TGI: > 100 µM
SN12C renal
  TGI: > 100 µM
M14 melanoma
  TGI: > 100 µM
SF-539 CNS
  TGI: > 100 µM
786-0 renal
  TGI: > 100 µM
UO-31 renal
  TGI: > 100 µM
SK-MEL-2 melanoma
  TGI: > 100 µM
SK-MEL-28 melanoma
  TGI: > 100 µM
HOP-62 NSCLC
  TGI: > 100 µM
HS 578T breast
  TGI: > 100 µM
MOLT-4 leukemia
  TGI: > 100 µM
RXF 393 renal
  TGI: > 100 µM
UACC-62 melanoma
  TGI: > 100 µM
SR leukemia
  TGI: > 100 µM
NCI-H460 lung
  TGI: > 100 µM
SK-OV-3 ovarian
  TGI: > 100 µM
OVCAR-5 ovarian
  TGI: > 100 µM
LOX IMVI melanoma
  TGI: > 100 µM

## COc1ccc(N2C(=O)C3c4[nH]c5ccccc5c4C4CCCCCCCC4C3C2=O)cc1 (centres undefined)
A498 renal
  TGI: > 10 µM
U251 CNS
  TGI: > 10 µM
MDA-N
  TGI: > 10 µM
RPMI-8226 leukemia
  TGI: > 10 µM
TK-10 renal
  TGI: > 10 µM
CAKI-1 renal
  TGI: > 10 µM
CCRF-CEM leukemia
  TGI: 8.35 µM
NCI-H226 lung
  TGI: > 10 µM
K-562 leukemia
  TGI: > 10 µM
MDA-MB-435
  TGI: > 10 µM
HCC-2998 colon
  TGI: > 10 µM
MCF7 breast
  TGI: > 10 µM
KM12 colon
  TGI: > 10 µM
MALME-3M melanoma
  TGI: > 10 µM
SK-MEL-5 melanoma
  TGI: > 10 µM
HCT-15 colon
  TGI: > 10 µM
OVCAR-8 ovarian
  TGI: > 10 µM
SNB-19 CNS
  TGI: > 10 µM
COLO 205 colon
  TGI: > 10 µM
OVCAR-3 ovarian
  TGI: > 10 µM
DU-145 prostate
  TGI: > 10 µM
T-47D breast
  TGI: > 10 µM
HCT-116 colon
  TGI: > 10 µM
HT29 colon
  TGI: > 10 µM
EKVX NSCLC
  TGI: > 10 µM
NCI-H522 lung
  TGI: > 10 µM
ACHN renal
  TGI: > 10 µM
SW-620 colon
  TGI: > 10 µM
IGROV1 ovarian
  TGI: > 10 µM
MDA-MB-231 breast
  TGI: > 10 µM
SF-295 CNS
  TGI: > 10 µM
NCI/ADR-RES ovarian
  TGI: > 10 µM
PC-3 prostate
  TGI: > 10 µM
NCI-H23 lung
  TGI: > 10 µM
SF-268 CNS
  TGI: > 10 µM
SNB-75 CNS
  TGI: > 10 µM
A549 NSCLC
  TGI: > 10 µM
HL-60(TB) leukemia
  TGI: > 10 µM
OVCAR-4 ovarian
  TGI: > 10 µM
SN12C renal
  TGI: > 10 µM
M14 melanoma
  TGI: > 10 µM
SF-539 CNS
  TGI: > 10 µM
UO-31 renal
  TGI: > 10 µM
SK-MEL-2 melanoma
  TGI: > 10 µM
SK-MEL-28 melanoma
  TGI: > 10 µM
HOP-62 NSCLC
  TGI: > 10 µM
HS 578T breast
  TGI: > 10 µM
MOLT-4 leukemia
  TGI: > 10 µM
RXF 393 renal
  TGI: > 10 µM
UACC-62 melanoma
  TGI: > 10 µM
SR leukemia
  TGI: > 10 µM
NCI-H460 lung
  TGI: > 10 µM
SK-OV-3 ovarian
  TGI: > 10 µM
OVCAR-5 ovarian
  TGI: > 10 µM

Reference: PubChem BioAssay (NCI)
